The values that follow come from BindingDB's records for doi:10.1021/jm950699x (Rhône-Poulenc Rorer, 1996).

This test concerns the target Leukotriene B4 receptor (Cavia porcellus). Put plainly: Compound was evaluated for Leukotriene B4 receptor binding, obtained from radioligand binding assay using guinea pig spleen cell membrane.

The IC50 is the concentration at which inhibition is half-maximal. Read a high IC50 as lower potency.

As for `CCOC(=O)/C=C/c1cn(CC(=O)N(C)CCc2ccccc2)c2ccc(OCc3ccccc3)cc12` [(E)-3-{5-Benzyloxy-1-[(methyl-phenethyl-carbamoyl)-methyl]-1H-indol-3-yl}-acrylic acid ethyl ester], the half-maximal inhibitory concentration (IC50) was > 300 nM.
